Data from patent publication US20040235019A1, “Diagnostics and therapeutics for the gene expression signature of PPAR-gamma receptor ligand” (Agouron Pharmaceuticals, Inc., priority 2003, published 2004).

Tests used:
3T3-L1 cells = assay: Gene profile of 3T3-L1 cells treated with Rosiglitazone after PPARγ1 antisense knockdown; type: cell-based, murine; conditions: antisense 72 hours
Protocol: 3T3-L1 cells were treated for 72 hours with an antisense construct whose nucleic acid sequence was complementary to PPARγ1 and treated with Rosiglitazone. As a separate control, 3T3-L1 were cells treated with the antisense construct, but without Rosiglitazone. Gene expression levels were determined using Affymetix microarray analysis. Following the incubation, RNA was extracted from the cells using Trizol (Invitrogen) followed by cleanup using an RNeasy kit (Qiagen) including DNase I treatment. Probes from each of these cell populations were prepared by reverse transcription-polymerase chain reaction (RT-PCR) and subsequently biotin labeled by in vitro transcription using the BioArray High Yield RNA Transcript Labeling Kit (Enzo). The probes were then hybridized to U74Aver2 Affymetrix gene chips. The hybridization was conducted as follows The hybridization was for 16 hours at 45° C. and 60 RPM in a rotisserie box.

[1] = patients; personal communication (Heidi Camp, Pfizer Inc); cited from earlier work

| Structure (SMILES) | genes of Tables I and II also up- or down-regulated by Rosiglitazone in cells treated with PPARγ1 antisense nucleic acid (3T3-L1 cells) [%] | incidence of edema clinically [1] |
| --- | --- | --- |
| CN(CCOc1ccc(CC2SC(=O)NC2=O)cc1)c1ccccn1 (centres unmarked) [Rosiglitazone] | 91 |  |
| Cc1oc(-c2ccccc2)nc1CCOc1ccc(C[C@H](Nc2ccccc2C(=O)c2ccccc2)C(=O)O)cc1 [Farglitazar] |  | most frequent incidence of edema clinically |
